Source: ChEMBL document CHEMBL1201862, “PubChem BioAssay data set” (2004)
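Grown in 96-well plates, cells were treated for 48 hours with each compound at five concentrations. Insufficient inhibition: endpoint recorded as highest concentration tested. GI50: concentration for 50% inhibition of growth.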 The source made the active and inactive calls. No stated cut-off is given here; in the data, active = GI50 up to about 1.1 µM and inactive = higher.

What was measured:
Assay in all cases: NCI anticancer screen, dose series, 48 h
MCF7 = test system: MCF7
SK-MEL-28 = test system: SK-MEL-28
SR = test system: SR
OVCAR-8 = test system: OVCAR-8
CAKI-1 = test system: CAKI-1
OVCAR-5 = test system: OVCAR-5
HOP-62 = test system: HOP-62
ACHN = test system: ACHN
HCC 2998 = test system: HCC 2998
U-251 = test system: U-251
MOLT-4 = test system: MOLT-4
NCI/ADR-RES = test system: NCI/ADR-RES
M14 = test system: M14
DU-145 = test system: DU-145
MDA-MB-231 = test system: MDA-MB-231
NCI-H226 = test system: NCI-H226
IGROV-1 = test system: IGROV-1
PC-3 = test system: PC-3
MDA-N = test system: MDA-N
M19-MEL = test system: M19-MEL

SMILES	GI50 (MCF7)	GI50 (SK-MEL-28)	GI50 (SR)	GI50 (OVCAR-8)	GI50 (CAKI-1)	GI50 (OVCAR-5)	GI50 (HOP-62)	GI50 (ACHN)	GI50 (HCC 2998)	GI50 (U-251)	GI50 (MOLT-4)	GI50 (NCI/ADR-RES)	GI50 (M14)	GI50 (DU-145)	GI50 (MDA-MB-231)	GI50 (NCI-H226)	GI50 (IGROV-1)	GI50 (PC-3)	GI50 (MDA-N)	GI50 (M19-MEL)
COc1cc(C2c3cc4c(cc3OC(NNC(N)=O)C2C)OCO4)cc(OC)c1O (stereo not given)	1.64 µM (inactive)	27.4 µM (inactive)	1.12 µM (active)	4.5 µM (inactive)	7.91 µM (inactive)	6.59 µM (inactive)	5.48 µM (inactive)	5.93 µM (inactive)	2.54 µM (inactive)	2.1 µM (inactive)	2.58 µM (inactive)	21.3 µM (inactive)	2.73 µM (inactive)	3.96 µM (inactive)	5.05 µM (inactive)	6.65 µM (inactive)	1.62 µM (inactive)	1.67 µM (inactive)	0.274 µM (active)	
O=C1N/C(=N\N=C\c2ccccc2)C(c2ccccc2)O1 (stereo not given)	68.4 µM (inactive)	> 100 µM (inactive)	23.6 µM (inactive)	47.5 µM (inactive)	74.1 µM (inactive)	> 100 µM (inactive)	65.6 µM (inactive)	53.5 µM (inactive)	17.1 µM (inactive)	58.9 µM (inactive)	25.5 µM (inactive)	33.3 µM (inactive)	54 µM (inactive)	53 µM (inactive)	88.5 µM (inactive)	30.9 µM (inactive)	> 100 µM (inactive)	61.8 µM (inactive)	> 100 µM (inactive)	
Fc1cc2nc3n(c2cc1F)C(c1c(F)cccc1F)SC3 (stereo not given)	31.4 µM (inactive)	43 µM (inactive)	30.1 µM (inactive)	42 µM (inactive)	34.3 µM (inactive)	53.3 µM (inactive)	67.9 µM (inactive)	61 µM (inactive)	68.4 µM (inactive)	57.3 µM (inactive)	27.1 µM (inactive)	35.4 µM (inactive)	30.5 µM (inactive)	87.5 µM (inactive)	84.5 µM (inactive)	52 µM (inactive)	47.9 µM (inactive)	37.3 µM (inactive)	35.6 µM (inactive)	
CCS[C@H]1NC(=O)C1[C@H](C)O[Si](C)(C)C(C)(C)C (stereo not given in full)		> 100 µM (inactive)		> 100 µM (inactive)	74 µM (inactive)	75.5 µM (inactive)	> 100 µM (inactive)	> 100 µM (inactive)		> 100 µM (inactive)							> 100 µM (inactive)			> 100 µM (inactive)
C/C(=N\NC(=S)Nc1ccc(Cl)cc1)c1nc2cccnc2[nH]1	2.69 µM (inactive)	1.51 µM (inactive)	0.92 µM (active)	1.45 µM (inactive)	1.53 µM (inactive)	2.29 µM (inactive)	1.52 µM (inactive)	0.822 µM (active)	1.3 µM (inactive)	0.773 µM (active)	0.687 µM (active)	2.65 µM (inactive)	1.48 µM (inactive)	1.97 µM (inactive)	6.04 µM (inactive)	1.77 µM (inactive)	3.08 µM (inactive)	1.39 µM (inactive)	5.13 µM (inactive)	
CC(C)(NO)/C(=N\O)c1ccco1	> 100 µM (inactive)	> 100 µM (inactive)	> 10 µM (inactive)	> 100 µM (inactive)	> 100 µM (inactive)	> 100 µM (inactive)	> 100 µM (inactive)	> 100 µM (inactive)	> 100 µM (inactive)	> 100 µM (inactive)	20.1 µM (inactive)	> 100 µM (inactive)	> 100 µM (inactive)	> 100 µM (inactive)	> 100 µM (inactive)	> 100 µM (inactive)	> 100 µM (inactive)	> 100 µM (inactive)	> 100 µM (inactive)	
Cc1ccc(C(=O)C(Cl)C(Cl)c2ccc(C)cc2)cc1 (stereo not given)	4.56 µM (inactive)	2.68 µM (inactive)	1.82 µM (inactive)	2.72 µM (inactive)	2.59 µM (inactive)	7.87 µM (inactive)	18.1 µM (inactive)	1.72 µM (inactive)	2.03 µM (inactive)	3.46 µM (inactive)	2.03 µM (inactive)	2.55 µM (inactive)	4.71 µM (inactive)	5.18 µM (inactive)	5.14 µM (inactive)	5.04 µM (inactive)	2.58 µM (inactive)	5 µM (inactive)	2.21 µM (inactive)	
O=C(O)C1C2c3ccccc3C(c3ccccc32)C1C(=O)NCC1CC1 (stereo not given)	52.1 µM (inactive)	> 100 µM (inactive)	45 µM (inactive)	55 µM (inactive)	> 100 µM (inactive)	> 100 µM (inactive)	68.2 µM (inactive)	78 µM (inactive)	13.5 µM (inactive)	47 µM (inactive)	29.9 µM (inactive)	32.4 µM (inactive)	61.9 µM (inactive)	81.1 µM (inactive)	> 100 µM (inactive)	60.4 µM (inactive)	72.6 µM (inactive)	53.7 µM (inactive)	48.2 µM (inactive)	
COc1ccc(/C(C)=N/OC(=O)c2c(-c3ccccc3Cl)noc2C)cc1CN1CCOCC1	20.8 µM (inactive)	19.7 µM (inactive)	25 µM (inactive)	29.3 µM (inactive)	20.7 µM (inactive)	12.8 µM (inactive)	19.1 µM (inactive)	15.7 µM (inactive)	30.5 µM (inactive)	25.4 µM (inactive)	24 µM (inactive)	34.1 µM (inactive)	14 µM (inactive)	38.3 µM (inactive)	20 µM (inactive)	88.1 µM (inactive)	21.1 µM (inactive)	24.2 µM (inactive)	18.8 µM (inactive)	
O=C(c1ccccc1)C(Nc1ccc2ccccc2c1)c1ccccc1 (stereo not given)	12.7 µM (inactive)	49.7 µM (inactive)	7.89 µM (inactive)	42 µM (inactive)	> 100 µM (inactive)	> 52.7 µM (inactive)	36.6 µM (inactive)	48.8 µM (inactive)	20.7 µM (inactive)	21.9 µM (inactive)	8.41 µM (inactive)	25.2 µM (inactive)	31.3 µM (inactive)	42 µM (inactive)	28.8 µM (inactive)	> 60.7 µM (inactive)	29.7 µM (inactive)	17.6 µM (inactive)	7.05 µM (inactive)	
CCOC(=O)NC(Nc1ncn(C(NC(=O)OCC)(C(F)(F)F)C(F)(F)F)n1)(C(F)(F)F)C(F)(F)F	> 100 µM (inactive)	> 100 µM (inactive)	> 100 µM (inactive)	> 100 µM (inactive)	> 100 µM (inactive)	> 100 µM (inactive)	> 100 µM (inactive)	> 100 µM (inactive)	29.9 µM (inactive)	> 100 µM (inactive)	> 100 µM (inactive)	> 100 µM (inactive)	> 100 µM (inactive)	> 100 µM (inactive)	> 100 µM (inactive)	> 100 µM (inactive)	> 100 µM (inactive)	> 100 µM (inactive)	> 100 µM (inactive)	
CCOC(=O)C(Cl)(NC(=O)c1ccc(F)cc1)C(F)(F)F (stereo not given)	> 100 µM (inactive)	> 100 µM (inactive)	> 100 µM (inactive)	> 100 µM (inactive)	> 100 µM (inactive)	> 100 µM (inactive)	> 100 µM (inactive)	> 100 µM (inactive)	> 100 µM (inactive)	> 100 µM (inactive)	> 100 µM (inactive)	> 100 µM (inactive)	> 100 µM (inactive)	> 100 µM (inactive)	> 100 µM (inactive)	> 100 µM (inactive)	> 100 µM (inactive)	> 100 µM (inactive)	> 100 µM (inactive)	
COc1ccc(OC)c2c1C[C@@H]1C(C#N)N3[C@H](Cc4c(OC)ccc(OC)c4[C@@H]3C)C(=O)N1[C@H]2C (stereo not given in full)	3.91 µM (inactive)	3.03 µM (inactive)	2.15 µM (inactive)	2.38 µM (inactive)	4.72 µM (inactive)	8.09 µM (inactive)	22.5 µM (inactive)	2.8 µM (inactive)	3.61 µM (inactive)	2.26 µM (inactive)	2.43 µM (inactive)	4.12 µM (inactive)	2.67 µM (inactive)	22.4 µM (inactive)	2.08 µM (inactive)	13.5 µM (inactive)	4.56 µM (inactive)	3.18 µM (inactive)	4.33 µM (inactive)	
COc1cc(C(C[N+](=O)[O-])SC(C)=O)ccc1OCc1ccccc1 (stereo not given)	2.38 µM (inactive)	2.54 µM (inactive)	1.79 µM (inactive)	5.9 µM (inactive)	12 µM (inactive)	14.8 µM (inactive)	7.18 µM (inactive)	9.55 µM (inactive)	8.45 µM (inactive)	6.9 µM (inactive)	2.25 µM (inactive)	12.2 µM (inactive)	4.89 µM (inactive)	13.3 µM (inactive)	4.93 µM (inactive)	7.91 µM (inactive)	2.88 µM (inactive)	4.47 µM (inactive)	2.88 µM (inactive)	
CCCn1cnc2c(/N=N/O)ncnc21	> 100 µM (inactive)	> 100 µM (inactive)	> 100 µM (inactive)	> 100 µM (inactive)	> 100 µM (inactive)	> 100 µM (inactive)	> 100 µM (inactive)	> 100 µM (inactive)	> 100 µM (inactive)	> 100 µM (inactive)	> 100 µM (inactive)	> 100 µM (inactive)	> 100 µM (inactive)	> 100 µM (inactive)	> 100 µM (inactive)	> 100 µM (inactive)	> 100 µM (inactive)	> 100 µM (inactive)	> 100 µM (inactive)	
